Laboratory results from US8133884B2, “Compounds for the treatment of hepatitis C” (priority 2008, dated 2012).

How the values were obtained:
[1] = target: T1, HCV NS5B (Hepatitis C virus genotype 1b, UniProt Q9WMX2); assay: Modified HCV NS5B RdRp enzyme assay (preincubation protocol); assay type: biochemical
T1 construct: The protein was expressed with an 18 amino acid C-terminal truncation to enhance the solubility; made in house; host or cells: E. coli BL21(DE3)
Summary of the method: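 C-terminally truncated (Δ18) genotype 1b NS5B from E. coli, 14 nM, added to compound first, then polyA template (0.2 nM), 3H-UTP (0.29 μM) and oligo-dT12 primer precaptured on streptavidin SPA beads (20 nM). Run 4 h at 30° C, pH 7.5, 2% DMSO; IC50 fitted from seven concentrations.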

[2] = tested on: HCV replicon; assay: HCV replicon assay (FRET or luciferase reporter); assay type: cell-based; details: Hepatitis C virus, one of the methods described
Summary of the method: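 HCV replicon Huh-7 cells were exposed to titrated compound at 37 °C, with Alamar blue as a cytotoxicity read. Replication was measured by NS3 cleavage of an EDANS/DABCYL FRET peptide (20 μM, 340/490 nm kinetic read) or by Renilla luciferase, with background from high-dose protease inhibitor wells. EC50 was taken as 50% signal reduction; a 384-well format used 3.0×10^3 cells/well, 0.5% DMSO and 3 days.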

T1 sequence (Q9WMX2 2420-2992): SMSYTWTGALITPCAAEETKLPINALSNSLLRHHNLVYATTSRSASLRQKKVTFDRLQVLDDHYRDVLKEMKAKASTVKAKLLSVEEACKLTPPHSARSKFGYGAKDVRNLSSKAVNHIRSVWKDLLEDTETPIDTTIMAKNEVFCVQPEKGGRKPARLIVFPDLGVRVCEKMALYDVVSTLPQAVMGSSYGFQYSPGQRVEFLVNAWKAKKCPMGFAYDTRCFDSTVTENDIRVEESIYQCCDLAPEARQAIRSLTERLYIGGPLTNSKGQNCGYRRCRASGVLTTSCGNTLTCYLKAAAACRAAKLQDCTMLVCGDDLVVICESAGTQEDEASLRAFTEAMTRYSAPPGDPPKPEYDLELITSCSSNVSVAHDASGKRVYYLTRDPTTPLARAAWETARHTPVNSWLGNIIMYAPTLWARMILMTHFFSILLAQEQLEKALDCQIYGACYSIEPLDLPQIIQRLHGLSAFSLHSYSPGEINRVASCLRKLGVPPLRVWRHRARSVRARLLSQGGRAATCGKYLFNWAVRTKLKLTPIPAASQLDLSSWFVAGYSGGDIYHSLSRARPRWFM

Structure (SMILES)	IC50 ([1]; class symbol) [nM]	EC50 ([2]; class symbol) [nM]	IC50 ([1]; exact value) [nM]	EC50 ([2]; exact value) [nM]
COc1ccc2c(c1)C=C(c1c(C(=O)N3C[C@@H](C)N(C)[C@@H](C)C3)cnn1C1CC1)Cn1c-2c(C2CCCCC2)c2ccc(C(=O)NS(=O)(=O)C(C)C)cc21	1.7 to 500	1.7 to 500		
COc1ccc2c(c1)C=C(c1c(C(=O)N3CCOCC3)cnn1C1CC1)Cn1c-2c(C2CCCCC2)c2ccc(C(=O)NS(=O)(=O)C(C)C)cc21	1.7 to 500	1.7 to 500		
COc1ccc2c(c1)C=C(c1nn(C3CC3)cc1C(=O)N1CCOCC1)Cn1c-2c(C2CCCCC2)c2ccc(C(=O)NS(=O)(=O)C(C)C)cc21	1.7 to 500	1.7 to 500		
COc1ccc2c(c1)C=C(c1c(C(=O)N3CC4CCC(C3)N4C)cnn1C1CCC1)Cn1c-2c(C2CCCCC2)c2ccc(C(=O)NS(=O)(=O)CC(C)C)cc21	1.7 to 500	1.7 to 500		
COc1ccc2c(c1)C=C(c1c(C(=O)N3C4CCC3CN(C)C4)cnn1C1CCC1)Cn1c-2c(C2CCCCC2)c2ccc(C(=O)NS(=O)(=O)C(C)C)cc21	1.7 to 500	1.7 to 500		
COc1ccc2c(c1)C=C(c1c(C(=O)N3C[C@@H](C)N(C)[C@@H](C)C3)cnn1C1CCC1)Cn1c-2c(C2CCCCC2)c2ccc(C(=O)NS(=O)(=O)C(C)C)cc21	1.7 to 500	1.7 to 500		
COc1ccc2c(c1)C=C(c1c(C(=O)N3CCOCC3)cnn1C1CCC1)Cn1c-2c(C2CCCCC2)c2ccc(C(=O)NS(=O)(=O)C(C)C)cc21	1.7 to 500	1.7 to 500		
COc1ccc2c(c1)C=C(c1c(C(=O)N3C[C@@H](C)O[C@@H](C)C3)cnn1C1CCC1)Cn1c-2c(C2CCCCC2)c2ccc(C(=O)NS(=O)(=O)C(C)C)cc21	1.7 to 500	1.7 to 500		
COc1ccc2c(c1)C=C(c1c(C(=O)N3CC4CCC(C3)N4C)cnn1C1CCC1)Cn1c-2c(C2CCCCC2)c2ccc(C(=O)NS(=O)(=O)C(C)C)cc21	1.7 to 500	1.7 to 500		
COc1ccc2c(c1)C=C(c1c(C(=O)N3C4CCC3CC(C)(O)C4)cnn1C1CCC1)Cn1c-2c(C2CCCCC2)c2ccc(C(=O)NS(=O)(=O)CC(C)C)cc21 (stereo not shown)	1.7 to 500	1.7 to 500		
COc1ccc2c(c1)C=C(c1c(C(=O)N3C4CCC3CC(C)(O)C4)cnn1C1CCC1)Cn1c-2c(C2CCCCC2)c2ccc(C(=O)NS(=O)(=O)C(C)C)cc21 (stereo not shown)	1.7 to 500	1.7 to 500		
CCOC(=O)c1cnn(C2CCN(C)CC2)c1C1=Cc2cc(OC)ccc2-c2c(C3CCCCC3)c3ccc(C(=O)O)cc3n2C1	1.7 to 500	1.7 to 500		
COc1ccc2c(c1)C=C(c1c(C(=O)N3C4COCC3COC4)cnn1C1CCN(C)CC1)Cn1c-2c(C2CCCCC2)c2ccc(C(=O)NS(=O)(=O)C(C)C)cc21	1.7 to 500	1.7 to 500	7.5	130
COc1ccc2c(c1)C=C(c1c(C(=O)N3CCOCC3)cnn1C1CCN(C)CC1)Cn1c-2c(C2CCCCC2)c2ccc(C(=O)NS(=O)(=O)C(C)C)cc21	1.7 to 500	1.7 to 500		
COc1ccc2c(c1)C=C(c1c(C(=O)N3C4CCC3CN(C)C4)cnn1C1CCN(C)CC1)Cn1c-2c(C2CCCCC2)c2ccc(C(=O)NS(=O)(=O)C(C)C)cc21	1.7 to 500	1.7 to 500		
COc1ccc2c(c1)C=C(c1c(C(=O)N3C[C@@H](C)O[C@@H](C)C3)cnn1C1CCN(C)CC1)Cn1c-2c(C2CCCCC2)c2ccc(C(=O)NS(=O)(=O)C(C)C)cc21	1.7 to 500	1.7 to 500	5.4	5.5
COc1ccc2c(c1)C=C(c1c(C(=O)N3C[C@@H](C)N(C)[C@@H](C)C3)cnn1C1CCN(C)CC1)Cn1c-2c(C2CCCCC2)c2ccc(C(=O)NS(=O)(=O)C(C)C)cc21	1.7 to 500	1.7 to 500		

Structure (SMILES)	IC50 ([1]; class symbol) [nM]	EC50 ([2]; class symbol) [nM]	IC50 ([1]; exact value) [nM]	EC50 ([2]; exact value) [nM]
CCOC(=O)c1cnn(C2CCN(C)CC2)c1C1=Cc2cc(OC)ccc2-c2c(C3CCCCC3)c3ccc(C(=O)NS(=O)(=O)C(C)C)cc3n2C1	1.7 to 500	1.7 to 500		
COc1ccc2c(c1)C=C(c1c(C(=O)N3C4CCC3CC(C)(O)C4)cnn1C1CCN(C)CC1)Cn1c-2c(C2CCCCC2)c2ccc(C(=O)NS(=O)(=O)C(C)C)cc21 (stereo not shown)	1.7 to 500	1.7 to 500	96	10
COCC1CN(C(=O)c2cnn(C3CCN(C)CC3)c2C2=Cc3cc(OC)ccc3-c3c(C4CCCCC4)c4ccc(C(=O)NS(=O)(=O)C(C)C)cc4n3C2)CCO1 (stereo not shown)	1.7 to 500	1.7 to 500		
COc1ccc2c(c1)C=C(c1c(C(=O)N3C4CCCC3COC4)cnn1C1CCN(C)CC1)Cn1c-2c(C2CCCCC2)c2ccc(C(=O)NS(=O)(=O)C(C)C)cc21	1.7 to 500	1.7 to 500		
CCOC(=O)c1cnn(-c2ccncc2C)c1C1=Cc2cc(OC)ccc2-c2c(C3CCCCC3)c3ccc(C(=O)O)cc3n2C1	1.7 to 500	1.7 to 500		
CCOC(=O)c1cnn(-c2ccncc2C)c1C1=Cc2cc(OC)ccc2-c2c(C3CCCCC3)c3ccc(C(=O)NS(=O)(=O)C(C)C)cc3n2C1	1.7 to 500	1.7 to 500		
COc1ccc2c(c1)C=C(c1c(C(=O)N3CCOCC3)cnn1-c1ccncc1C)Cn1c-2c(C2CCCCC2)c2ccc(C(=O)NS(=O)(=O)C(C)C)cc21	1.7 to 500	1.7 to 500		
COCC1CN(C(=O)c2cnn(-c3ccncc3C)c2C2=Cc3cc(OC)ccc3-c3c(C4CCCCC4)c4ccc(C(=O)NS(=O)(=O)C(C)C)cc4n3C2)CCO1 (stereo not shown)	1.7 to 500	1.7 to 500	5.5	170
COc1ccc2c(c1)C=C(c1c(C(=O)N3C4CCCC3COC4)cnn1-c1ccncc1C)Cn1c-2c(C2CCCCC2)c2ccc(C(=O)NS(=O)(=O)C(C)C)cc21	1.7 to 500	1.7 to 500	4.3	4
COc1ccc2c(c1)C=C(c1c(C(=O)N3C[C@@H](C)O[C@@H](C)C3)cnn1-c1ccncc1C)Cn1c-2c(C2CCCCC2)c2ccc(C(=O)NS(=O)(=O)C(C)C)cc21	1.7 to 500	1.7 to 500		
COc1ccc2c(c1)C=C(c1c(C(=O)N3C[C@@H](C)N(C)[C@@H](C)C3)cnn1-c1ccncc1C)Cn1c-2c(C2CCCCC2)c2ccc(C(=O)NS(=O)(=O)C(C)C)cc21	1.7 to 500	1.7 to 500		
COc1ccc2c(c1)C=C(c1c(C(=O)N3C4COCC3COC4)cnn1-c1ccncc1C)Cn1c-2c(C2CCCCC2)c2ccc(C(=O)NS(=O)(=O)C(C)C)cc21	1.7 to 500	1.7 to 500		
COc1ccc2c(c1)C=C(c1c(C(=O)N3C4CCC3CC(C)(O)C4)cnn1-c1ccncc1C)Cn1c-2c(C2CCCCC2)c2ccc(C(=O)NS(=O)(=O)C(C)C)cc21 (stereo not shown)	1.7 to 500	1.7 to 500		
CCOC(=O)c1cnn(C2CC[N+](C)([O-])CC2)c1C1=Cc2cc(OC)ccc2-c2c(C3CCCCC3)c3ccc(C(=O)NS(=O)(=O)C(C)C)cc3n2C1 (stereo not shown)	1.7 to 500	1.7 to 500	5.1	220
COc1ccc2c(c1)C=C(c1c(C(=O)N3C[C@@H]4C[C@H]3CN4)c(C)nn1C1CCC1)Cn1c-2c(C2CCCCC2)c2ccc(C(=O)NS(=O)(=O)C(C)C)cc21	< 1.7	1.7 to 500		
COC[C@H]1CN(C(=O)c2cnn(C3CCC3)c2C2=Cc3cc(OC)ccc3-c3c(C4CCCCC4)c4ccc(C(=O)NS(=O)(=O)C(C)C)cc4n3C2)CCO1	< 1.7	1.7 to 500	< 1.7	10
COc1ccc2c(c1)C=C(c1c(C(=O)N3C[C@@H](C)O[C@@H](C)C3)cnn1C1CCC1)Cn1c-2c(C2CCCCC2)c2ccc(C(=O)NS(=O)(=O)N(C)C)cc21 [drawing 259]	1.7 to 500	1.7 to 500		
